Experiments:
[1] = tested on: NCC-CDS-X1 and Kitra-SRS cell cultures; experiment: Morphology of monolayer CDS cell cultures; format: cell-based, human; conditions: both CDS cell lines
Description: To evaluate the consequences of iP300w treatment of CDS cells, its effects on both monolayer cultures as well as 3D spheres was determined in both CDS cell lines. Inhibition of proliferation was morphologically apparent as early as 24 hours after iP300w treatment and progressed with time (FIG. 2A). Using the cell viability assay, it was determined that 0.003 μM was the lowest effective concentration on day 2 in both lines (FIG. 2B).

[2] = tested on: Kitra-SRS cells; experiment: Immunofluorescence for Ki-67 in Kitra-SRS cells; format: cell-based, human; conditions: 24 hours, 0.3 μM
Description: (§1) For western blot analyses, cells were lysed with RIPA buffer supplemented with protease inhibitor cocktail (Complete, Roche), and proteins were separated on 10% SDS-PAGE gels, then transferred to PVDF membranes. Antibodies were diluted in 5% skim milk in TBST and incubated overnight at 4° C. or 1 hour at RT. An appropriate secondary HRP conjugated antibody was incubated for 1 hour at RT. Membranes were then washed with TBST, and signal was visualized using Pierce ECL western blotting substrate (Thermo Scientific). For immunofluorescence, cells cultured in 96 well plates were fixed in 4% PFA for 10 min., washed twice with PBS, permeabilized with 0.3% Triton X for 30 min, and blocked with 3% BSA for 1 hour at R/T. Primary antibodies were diluted in 3% BSA and incubated o/n at 4° C. An appropriate conjugated secondary antibody was applied for 60 min at RT. Nuclei were visualized using DAPI (1:5000, Sigma). […]

[3] = tested on: Ewing sarcoma cell lines (AF573, TC71, A673); experiment: Cell viability (ATP) assay in Ewing sarcoma cell lines; format: cell-based; conditions: 0.003 and 0.03 μM, 48 hours
Description: Cell lines were plated in a 96 well dish (1×10^5 cells/well), and the following day were treated with iP300w or its stereoisomers. ATP assays were performed using CellTiter-Glo® Luminescent Cell Viability Assay (Promega) according to the manufacturer's instructions. Luminescence was analyzed on POLARstar Optima Microplate Reader (BMG Labtech, Offenburg, Germany).
To determine whether iP300w was particularly active against CDS cells, vis-à-vis other related cancer cell lines, viability of 3 different Ewing sarcoma (ES) cell lines and several different immortalized cell lines treated with iP300w were compared. […] Furthermore, gene expression analyses confirmed the specificity of iP300w to CDS.

[4] = tested on: ETV1, 4, and 5 in 3T3-CIC-DUX4, C2C12-CIC-DUX4 and LHCN-CIC-DUX4 cell lines; experiment: RT-qPCR for CIC-DUX4 target genes in cell lines overexpressing CIC-DUX4; format: cell-based, mouse and human; conditions: each CIC-DUX4 overexpressing cell line, 18 hours
Description: Viral supernatants were produced in 293T cells. For transducing mouse cells (3T3 and C2C12), the CIC-DUX4 expression vector was packed with pCL-Eco, and for infecting human cells (293T, LHCN-M2) with psPAX2 and pMD2.G using FUGENE 6 (Roche). Viral supernatant was collected at 48 hours and 72 hours post-transfection and applied to the cells. Two days post-infection GFP positive cells were sorted using a BD FACSAria II. Established cell lines were tested for CIC-DUX4 expression by immunofluorescence and RT-qPCR.
RNA was extracted using an RNA extraction kit (Zymo) and cDNA was made using 0.5 μg total RNA with oligo-dT primer and Verso cDNA Synthesis Kit (Thermo Scientific) following the manufacturer's instructions. qPCRs were performed by using Premix Ex Taq (Probe qPCR, Takara) or SYBR-green. Gene expression levels were normalized to that of GAPDH and analyzed with 7500 System Software using the ACT method (Applied Biosystems). RNA-seq library preparation was done with 500 ng total RNA from NCC-CDS-X1 cells treated for 4 or 24 hours with iP300w (0.3 μM) using the Swift Rapid RNA Library Kit (SwiftBioscience). 36 base paired-end sequencing was performed on an Illumina NextSeq instrument at the University of Minnesota Genomics Center. […]

[5] = tested on: global H3K18 and H3K27 acetylation (p300/CBP); experiment: Western blot for acetylated H3K18 and H3K27 in cell lines overexpressing CIC-DUX4; format: cell-based, mouse and human; conditions: all analyzed CIC-DUX4 overexpressing cell lines, 18 hours
Description: as §1

[6] = tested on: global H3K18 and H3K27 acetylation; experiment: Western blot for H3 acetylation markers in Kitra-SRS cells; format: cell-based, human; conditions: 18 hours
Description: as §1

[7] = tested on: DUX4; conditions: cited from earlier work

## CNC(=O)Cn1cc(-c2ccc3c(c2)[C@H](F)C[C@]32NC(=O)N(CC(=O)N(Cc3ccc(F)cc3)[C@@H](C)C(F)(F)F)C2=O)cn1 (single isomer, unassigned) [iP300w]
[1]
  time at which inhibition of proliferation is morphologically apparent: 24 hours
[2]
  Ki-67 positive staining: almost complete absence of Ki-67 positive staining
[3]
  effect on cell viability: only effective for CIC-DUX4 driven sarcomas and not for the other cell lines
[4]
  effect on CIC-DUX4-induced ETV1, 4, and 5: reversible
[5]
  effect on CIC-DUX4-induced global H3K18 and H3K27 acetylation: abolished
[6]
  effect on global H3K18 and H3K27 acetylation: reduces global H3K18 and H3K27 acetylation
[7]
  effect on cell death caused by full length DUX4: cell death was prevented
  effect on gene expression changes caused by DUX4: ability to reverse gene expression changes caused by DUX4

— patent US12383534B2, “Methods for treating cancer” (REGENTS OF THE UNIVERSITY OF MINNESOTA, priority 2021, dated 2025)
